The source of these data is ChEMBL document CHEMBL5252651, “Discovery of Bioactive Metabolites by Acidic Stress to a Geldanamycin Producer, Streptomyces samsunensis” (J Nat Prod, 2023).

Calls of active or inactive are those of the source. The calls are words filed in the database; no cut-off is given here.

The subject of this assay is Staphylococcus aureus. Put plainly: Antivirulence activity against methicillin-resistant Staphylococcus aureus USA300 LAC assessed as change in Hla transcriptional level at 10 ug/ml incubated for 8 to 16 hrs by qRT-PCR analysis. The class given is functional, organism-based. As to conditions: dose 10.0 µg/ml, time 8-16 hrs.
`CO[C@H]1/C=C\C=C(/C)C(=O)NC2=CC(=O)C(O)=C(C[C@@H](C)C[C@H](OC)[C@H](O)[C@@H](C)/C=C(\C)[C@@H]1OC(N)=O)C2=O`: the result was inactive.
Next, `COC1=C2C[C@@H](C)C[C@H](OC)[C@H](O)[C@@H](C)/C=C(\C)[C@H](OC(N)=O)[C@@H](OC)/C=C\C=C(/C)C(=O)NC(=CC1=O)C2=O`: “inactive”; `CO[C@@H](C[C@H](C)Cc1cc(O)cc(NC(C)=O)c1)[C@H](O)[C@H](C)C(=O)O`: “inactive”.
